The test system of assay [1] is Male rats. The assay is described as follows: Serum lipids in rats given the compound in the diet for 7 days (Example 5). Type of assay: in vivo. Particulars: 0.1 g of the compound per kg of diet for 7 days, mean of 8 ± S.E. From the text:
Compound P3 provided the following results with rats: Male rats were fed on a normal diet or on a diet that contained O.lg of the compound per kg of diet for 7 days. Results are means of 8 values ± S.E.

Assay [2] deals with Obese subjects. The assay is described as follows: Clinical first study: obese subjects on a low energy liquid formula diet, six weeks (Example 6). Type of assay: in vivo, human. Conditions: 50 mg pfb, qds for six weeks, fasted. As for the experimental part:
Clinical studies using compound P3: First study Obese subjects (at least 20% above ideal weight) were given a low energy liquid formula diet and treated with the compound (50 mg pfb, qds) or placebo for six weeks. Serum triglyceride and cholesterol were measured in the fasted state just prior to the first dose and on the morning after the last dose of compound or placebo. Results are means ± S.E. with the number of subjects in parenthesis.

The test system of assay [3] is Obese subjects. The assay is described as follows: Clinical second study: crossover in obese subjects on a low energy high fibre diet, 2 x six weeks (Example 6). Conditions: 50 mg pfb qds first week, then 100 mg qds, fasted. Type of assay: in vivo, human. How it is done:
Clinical studies using compound P3: Second study Obese subjects (at least 20X above ideal weight) were given a low energy high fibre diet and treated with the compound or placebo for six weeks after which they were given the alternative treatment for a further six weeks. For the first week of treatment (weeks 1 or 7) the dose level was 50 mg pfb, qds and after this it was 100 mg qds. Serum lipids were measured in the fasted state just prior to the first dose and after each six week period of dosing. Results are means ± S.E. with the number of subjects in parentheses.

For assay [4], the system named is Zucker fa/fa male rats. Nature of the assay: Plasma lipids in Zucker fa/fa rats dosed once daily for 39 days (Example 7). Type of assay: in vivo. Conditions: 7.8µmol/kg once daily for 39 days, mean of 8 ± S.E.M. As for the experimental part: Zucker fa/fa male rats of about 550g were dosed once daily with either water or Compound P3 (7.8µmol/kg) for 39 days. Results are means of 8 values ± S.E.M.

Assay [5] has as its system normal mice. Nature of the assay: Serum lipids in normal mice dosed daily for 28 days (Example 1). Conditions: normal female CFLP mice, mean of 8 ± S.E.; for Serum triglyceride: untreated 40.0±3.2, P < 0.001; for Serum cholesterol: untreated 67.6±2.4. Type of assay: in vivo. As for the experimental part:
Compound P1 provided the following results with normal mice: Normal female CFLP mice were dosed daily at 11.00h for 28 days. One group was also dosed at 17.00h daily. 0n the day after dosing terminated they were killed at 14.00h. Results are means of 8 values ± S.E.

For assay [6], the system named is Goldthioglucose-induced obese mice. Nature of the assay: Serum lipids in goldthioglucose-induced obese mice (Example 2). Type of assay: in vivo. Conditions: goldthioglucose-induced obese female CFLP mice, 20 mg/kg p.o. once daily for 28 days, mean of 4 ± S.E. How it is done: Compound Pl provided the following results with Goldthioglucose-induced obese mice: . Female CFLP mice were given goldthioglucose (0.85 mg/g body wt., i.p.) and after 17 weeks the obese mice (mean wt. 57g) were selected and randomized into two groups of 4. The compound (20 mg/kg, p.o.) or water was given once daily for 28 days and the mice were killed the day after the last dose. Results are means of 4 values ± S.E.

The subject of assay [7] is High fat diet-induced obese mice. The assay is described as follows: Serum lipids in high fat diet-induced obese mice (Example 3). Type of assay: in vivo. Particulars: high fat diet-induced obese female CFLP mice, 20 mg/kg p.o. once daily for 28 days, mean ± S.E. (n=12). As for the experimental part: Compound Pl provided the following results with High fat diet-induced obese mice: Female CFLP mice were fed on a high protein, high fat diet. After 13 weeks the obese mice (mean wt. 49g) were selected and randomized into groups of 12. The compound (20 mg/kg, p.o.) or water was given once daily for 28 days and the mice were killed the day after the last dose. Results are means ± S.E, with numbers of determinations in parentheses.

Assay [8] concerns hypercholesterolaemic mice. Nature of the assay: Cholesterol reduction in hypercholesterolaemic mice on a high cholesterol-cholic acid diet (Example 4). Type of assay: in vivo. Conditions: oral; for % Reduction LDL + VLDL cholesterol: heparin precipitation. How it is done:
Compound P2 provided the following results with hypercholesterolaemic mice: Mice were made hypercholesterolaemic by being fed on a high cholesterol-cholic acid diet for seven days and were dosed orally on the sixth and seventh days. Low density and very low density lipoprotein (LDL and VLDL) cholesterol were measured together by heparin precipitation.

Where [9] appears, read: 2.5 mg/kg body wt. p.o. daily for 28 days.
Setting [10] is: 2.5 mg/kg body wt. p.o. twice daily for 28 days.
Where [11] appears, read: 5 mg/kg body wt. p.o. daily for 28 days.
[12] abbreviates: 10 mg/kg body wt. p.o. daily for 28 days.
Setting [13] is: 15 mg/kg body wt. p.o. daily for 28 days.
The mark [14] stands for this setting: total dose on days 6 and 7 5 mg/kg.
[15] abbreviates: total dose on days 6 and 7 10 mg/kg.
The mark [16] stands for this setting: total dose on days 6 and 7 25 mg/kg.

SMILES strings stand for the structures.

In the case of `COC(=O)c1ccc(C[C@@H](C)NC[C@H](O)c2ccccc2)cc1` (racemic) [Compound P3, N-[2-(4-carbomethoxyphenyl)-1-methylethyl]-2-hydroxy-2-phenylethanamine hemifumarate], the Serum cholesterol in assay [1] (control 52±2) was found to be 54±3 mg/100ml. Further, the Serum triglyceride in assay [1] (control 112±10, P < 0.05) was 70±4 mg/100ml. The “Serum triglyceride % Fall” value in assay [2] (initial 2.05±0.16 mM (4), subjects with initial levels below 1 mM excluded, placebo 21±7) is reported as 52±6%. For the same compound, the “Serum cholesterol % Fall” value in assay [2] (initial 5.81±0.44 mM (5), placebo 19±5) was 21±7%. Moreover, the “HDL cholesterol % change” value is 0±4% in assay [3] (1st 6 weeks, initial 1.50±0.07 mM (15), placebo -10±3) and “+14±3%” in assay [3] (2nd 6 weeks (after crossover), initial 1.30±0.04 mM (15), placebo -5±4). The “Serum triglyceride % change” value in assay [3] (1st 6 weeks, initial 1.57±0.18 mM (15), placebo -12±5) is on record as -25±5%; in assay [3] (2nd 6 weeks (after crossover), initial 1.21±0.18 mM (15), placebo +33±10), -4±8%. For the same compound, the “Serum cholesterol % change” value is listed as -9±3% in assay [3] (1st 6 weeks, initial 6.10±0.24 mM (15), placebo -13±3) and “+5±3%” in assay [3] (2nd 6 weeks (after crossover), initial 5.30±0.29 mM (15), placebo +4±3). Further, the “Plasma Cholesterol” value in assay [4] (water 3.44 ± 0.10, p < 0.05) was found to be 3.07 ± 0.14 mM. In assay [4] (water 9.3 ± 0.7, p < 0.02), the “Plasma Triglyceride” value is on record as 5.9 ± 0.9 mM.
As for `COC(=O)c1ccc(CC(C)NCC(O)c2ccc(O)c(CO)c2)cc1` (centres unmarked) [Compound P1, N-(2-(4-carbomethoxghenyl)-1-metnylethyl) -2-hydroxy-2-(4-hydroxy-3-hydroxymethylphenyl) ethanamine], the Serum triglyceride is 21.5±1.1 mg/100 ml in assay [5] (setting [9]); 16.4±0.8 mg/100 ml in assay [5] (setting [10]); 16.3±1.1 mg/100 ml in assay [5] (setting [11]); 14.5±0.7 mg/100 ml in assay [5] (setting [12]); 14.3±0.8 mg/100 ml in assay [5] (setting [13]); 22±3 mg/100 ml in assay [6] (control 35±4, P < 0.05). Moreover, the Serum triglyceride in assay [7] (control 73±8, P < 0.01) is listed as 34±2**(12) mg/100ml. Further, the Serum cholesterol in assay [5] (setting [9]) came out at 67.0±3.2 mg/100 ml; in assay [5] (setting [10]), 74.4±1.7 mg/100 ml; in assay [5] (setting [11]), 69.1±2.4 mg/100 ml; in assay [5] (setting [12]), 68.4±3.3 mg/100 ml; in assay [5] (setting [13]) it was 71.0±2.4 mg/100 ml; in assay [6] (control 82±4) it was 81±6 mg/100 ml. The Serum cholesterol in assay [7] (control 118±3, P < 0.05) was 103±5*(12) mg/100ml.
`COC(=O)COc1ccc(C[C@@H](C)NC[C@H](O)c2cccc(Cl)c2)cc1` (racemic) [Compound P2, N-(2-(4-carbomethoxymethoxyphenyl)-1-methylethyl)--2-hydroxy-2-(3-chlorophenyl)ethanamine nydrobromide]: the “% Reduction Total cholesterol” value is 24% in assay [8] (setting [14]), 22% in assay [8] (setting [15]) and 34% in assay [8] (setting [16]). Besides, the “% Reduction LDL + VLDL cholesterol” value is 29% in assay [8] (setting [14]), 28% in assay [8] (setting [15]) and 55% in assay [8] (setting [16]).

Values taken from patent publication EP0244062A2, “Use of aryl ethanol amine derivatives in the treatment of atherosclerosis” (BEECHAM GROUP PLC, priority 1986, dated 1987).
